Measurements as given in PMC9944328 (Nature Communications, 2023).
pEC50: −log10 of the molar value. Where two headings read alike, the source gives them in different places.

Tested on: SSTR2 mutants
Test: NanoBiT β-arrestin 1 recruitment assay, HEK293 (SSTR2 mutants);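 for Best-fit values Bottom: percent of maximal wild-type response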;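 for Best-fit values Span: percent of maximal wild-type response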;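 for Best-fit values Top: percent of maximal wild-type response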;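 for Bottom (best-fit): percent of maximal wild-type response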;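 for Span (best-fit): percent of maximal wild-type response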;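 for Top (best-fit value): percent of maximal wild-type response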;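 for Top (best-fit): percent of maximal wild-type response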;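 for Top: percent of maximal wild-type response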
Type: cell-based, human
Design: Bottom / Span / Bottom (best-fit) / Span (best-fit) / Best-fit values Bottom / Best-fit values Span / Bottom (best-fit value) / Span (best-fit value):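 percent of maximal wild-type response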
Description: The NanoBiT β-arrestin 1 recruitment assays were carried out according to the method described previously. […] Human full-length SSTR wild-type and mutant vectors were C-terminally fused with a 15-amino acid flexible linker and the small fragment (SmBiT). HEK293 cells were seeded into six-well microplates at a density of 1.0 × 10^6 cells/well and cultured for 24 h at 37 °C with 5% CO2. After that, cells were co-transfected with pcDNA3.1+ vectors encoding SSTR wild-type or mutants and human β-arrestin 1. After transfecting for 24 h, the transfected cells were suspended and seeded into white 96-well plates, and then cultured at 37 °C overnight. After that the medium in each well was exchanged for 90 μl of 0.01% bovine serum albumin containing 20 μl of 50 μM coelenterazine h (Carbosynth) diluted in the HBSS assay buffer and incubated for 40 min at room temperature. Then, ligands diluted in the assay buffer was added to each well and the luminescence intensity was measured using the Synergy H1 microplate reader and detected at room temperature in a time period. All data presented are means of at least three independent experiments.

[1] = S279A-2 (run 2), β-arrestin1 recruitment
[2] = S279A-3 (run 3), β-arrestin1 recruitment
[3] = Y302A-1 (run 1), β-arrestin1 recruitment
[4] = Y302A-2 (run 2), β-arrestin1 recruitment
[5] = Y302A-3 (run 3), β-arrestin1 recruitment
[6] = best-fit value, I195A-1 (run 1)
[7] = best-fit value, I195A-2 (run 2)
[8] = best-fit value, I195A-3 (run 3)

C[C@@H](O)[C@@H]1NC(=O)[C@H](CCCCN)NC(=O)[C@@H](Cc2c[nH]c3ccccc23)NC(=O)[C@H](Cc2ccccc2)NC(=O)[C@@H](NC(=O)[C@H](N)Cc2ccccc2)CSSC[C@@H](C(=O)N[C@H](CO)[C@@H](C)O)NC1=O [octreotide]
Top (best-fit value) (S279A-1 (run 1), β-arrestin1 recruitment): 93.61
pEC50 (S279A-1 (run 1), β-arrestin1 recruitment, read-out: EC50 (best-fit value)): 8.15
Bottom (best-fit value) [1]: -2.227
Span (best-fit value) [1]: 74.73
Top (best-fit value) [1]: 72.5
pEC50 (S279A-2 (run 2), β-arrestin1 recruitment, read-out: EC50 (best-fit value)): 7.67
Bottom (best-fit value) [2]: 0.9887
LogEC50 (best-fit value) [2]: -6.436
Span (best-fit value) [2]: 131.8
Top (best-fit value) [2]: 132.8
pEC50 (S279A-3 (run 3), β-arrestin1 recruitment, read-out: EC50 (best-fit value)): 6.44
Best-fit values Bottom (W269A-1): 0.3902
Best-fit values LogEC50 (W269A-1): -7.096
Best-fit values Span (W269A-1): 27.42
Best-fit values Top (W269A-1): 27.81
pEC50 (W269A-1, read-out: Best-fit values EC50): 7.10
Best-fit values LogEC50 (W269A-2): -7.281
Best-fit values Span (W269A-2): 32.61
Best-fit values Top (W269A-2): 36.93
pEC50 (W269A-2, read-out: Best-fit values EC50): 7.28
Best-fit values Bottom (W269A-3): 3.687
Best-fit values LogEC50 (W269A-3): -7.475
Best-fit values Span (W269A-3): 31.64
Best-fit values Top (W269A-3): 35.33
pEC50 (W269A-3, read-out: Best-fit values EC50): 7.47
Bottom (best-fit) (Y205A-1): -3.221
LogEC50 (best-fit) (Y205A-1): -7.699
Span (best-fit) (Y205A-1): 139.2
Top (best-fit) (Y205A-1): 135.9
pEC50 (Y205A-1, read-out: EC50 (best-fit)): 7.70
Bottom (best-fit) (Y205A-2): -1.321
LogEC50 (best-fit) (Y205A-2): -8.57
Span (best-fit) (Y205A-2): 93.02
Top (best-fit) (Y205A-2): 91.7
pEC50 (Y205A-2, read-out: EC50 (best-fit)): 8.57
Bottom (best-fit) (Y205A-3): 0.3514
LogEC50 (best-fit) (Y205A-3): -7.837
Span (best-fit) (Y205A-3): 328.7
Top (best-fit) (Y205A-3): 329.1
pEC50 (Y205A-3, read-out: EC50 (best-fit)): 7.84
β-arrestin recruitment of mutant (Y302(7.43)A): slightly impaired
Bottom (best-fit value) [3]: -0.3068
LogEC50 (best-fit value) [3]: -8.733
Span (best-fit value) [3]: 87.43
Top (best-fit value) [3]: 87.12
pEC50 (Y302A-1 (run 1), β-arrestin1 recruitment, read-out: EC50 (best-fit value)): 8.73
Bottom (best-fit value) [4]: 0.826
LogEC50 (best-fit value) [4]: -8.763
Span (best-fit value) [4]: 86.05
Top (best-fit value) [4]: 86.87
pEC50 (Y302A-2 (run 2), β-arrestin1 recruitment, read-out: EC50 (best-fit value)): 8.76
Bottom (best-fit value) [5]: 1.139
LogEC50 (best-fit value) [5]: -8.739
Span (best-fit value) [5]: 85.71
Top (best-fit value) [5]: 86.85
pEC50 (Y302A-3 (run 3), β-arrestin1 recruitment, read-out: EC50 (best-fit value)): 8.74
Bottom [6]: -0.3262
LogEC50 [6]: -7.224
Span [6]: 58.86
Top [6]: 58.54
pEC50 (best-fit value, I195A-1 (run 1), read-out: EC50): 7.22
Bottom [7]: -0.9813
LogEC50 [7]: -7.334
Span [7]: 61.03
Top [7]: 60.04
pEC50 (best-fit value, I195A-2 (run 2), read-out: EC50): 7.33
Bottom [8]: -0.6923
LogEC50 [8]: -7.245
Span [8]: 59.4
Top [8]: 58.71
pEC50 (best-fit value, I195A-3 (run 3), read-out: EC50): 7.25
Bottom (best-fit value, L99A-1 (run 1)): 17.86
LogEC50 (best-fit value, L99A-1 (run 1)): -6.902
Span (best-fit value, L99A-1 (run 1)): 95.94
Top (best-fit value, L99A-1 (run 1)): 113.8
Bottom (best-fit value, L99A-2 (run 2)): -2.171
LogEC50 (best-fit value, L99A-2 (run 2)): -7.606
Span (best-fit value, L99A-2 (run 2)): 48.46
Top (best-fit value, L99A-2 (run 2)): 46.29
pEC50 (best-fit value, L99A-2 (run 2), read-out: EC50): 7.61
Bottom (best-fit value, L99A-3 (run 3)): -2.89
